Literature values in paper PMC5014611 (Bioorganic & medicinal chemistry, 2016).

Biological target: T1, human GIVA cPLA2 (Homo sapiens, UniProt P47712)
T1 sequence (P47712 1-749): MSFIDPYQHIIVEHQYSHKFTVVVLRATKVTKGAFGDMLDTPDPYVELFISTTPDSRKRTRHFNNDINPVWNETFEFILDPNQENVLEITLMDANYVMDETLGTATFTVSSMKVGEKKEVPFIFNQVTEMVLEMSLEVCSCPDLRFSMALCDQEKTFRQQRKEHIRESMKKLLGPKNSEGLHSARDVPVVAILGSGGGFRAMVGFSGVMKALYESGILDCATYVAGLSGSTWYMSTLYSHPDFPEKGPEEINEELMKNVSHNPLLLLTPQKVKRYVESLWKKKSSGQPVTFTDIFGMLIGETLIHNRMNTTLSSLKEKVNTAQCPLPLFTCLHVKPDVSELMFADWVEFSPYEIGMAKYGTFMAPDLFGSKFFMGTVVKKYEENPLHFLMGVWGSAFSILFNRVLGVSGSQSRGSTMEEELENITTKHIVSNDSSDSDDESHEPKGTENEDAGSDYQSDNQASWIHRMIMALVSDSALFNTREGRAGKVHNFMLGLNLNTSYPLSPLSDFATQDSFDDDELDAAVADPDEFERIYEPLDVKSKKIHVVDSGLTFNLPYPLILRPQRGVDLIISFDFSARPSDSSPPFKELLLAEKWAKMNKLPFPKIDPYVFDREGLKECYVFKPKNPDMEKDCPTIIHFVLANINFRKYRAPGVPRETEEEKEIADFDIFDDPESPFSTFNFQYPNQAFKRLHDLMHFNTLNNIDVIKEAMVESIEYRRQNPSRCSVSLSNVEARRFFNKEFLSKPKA
Settings: commercially available inhibitor

GIVA cPLA2 XI(50): 0.036 mole fraction
SMILES: CCCCC/C=C\C/C=C\C/C=C\C/C=C\CCCC(=O)C(F)(F)F [AATFMK, arachidonoyl trifluoromethyl ketone]
